Measured values as given in patent US8859284B2, “Delivery of nanoparticles to neurons” (The United States of America, as represented by the …, priority 2009, dated 2014).
Square brackets hold non-standard residues; d marks the D form. Ends that are not written are not given here. * marks the point of attachment. Farnesyl = CC(C)=CCC/C(C)=C/CC/C(C)=C/C*; Palmitoyl = CCCCCCCCCCCCCCCC(=O)*; Dapaa = not defined here; Dapdi = not defined here; Dab = NCC[C@H](N)C(=O)O; Dap = NC[C@H](N)C(=O)O; Kh = not defined here; bi = not defined here; Aib = CC(C)(N)C(=O)O

Tested on: COS-1 cells
Test: Cellular uptake and endosomal escape of QD-peptide assemblies, fluorescence microscopy
Assay type: cell-based, African green monkey
Conditions: for intracellular distribution of QD-peptide assemblies: COS-1, 1 hr incubation, 24 hr culture; for % Escape in cells with uptake: QD-peptide assemblies; for Overall uptake/escape: uptake: first word of the cell; for Overall uptake/escape: escape: second word of the cell
Protocol: Merged images were generated using Adobe PhotoShop.
The peptide assemblies were incubated with COS-1 cells for 1 hr, removed, and the cells were subsequently cultured for 24 hr prior to fixation. An AlexaFluor 647-transferrin (Tf) conjugate was included during the incubation to label the vesicles of the endocytic pathway. Cell nuclei were stained with DAPI.

Substance	intracellular distribution of QD-peptide assemblies	% Escape in cells with uptake (COS1 cells)	Overall uptake/escape: uptake (COS1 cells)	Overall uptake/escape: escape (COS1 cells)	QD/TAMRA colocalized (integrity) (COS1 cells, printed in the % QD uptake column)	% QD uptake (n), result in words (COS1 cells, cell continues in r20 'localized')
AcG(Pal)DapVKIKKGLAPAAGG H6 (Ac-G[Dap](Palmitoyl)VKIKKGLAPAAGGHHHHHH) [Palm-3b]	nearly entirely sequestered within endosomes					
WGCgVKIKK(P)9GG(H)6 (WGC(Farnesyl)VKIKKPPPPPPPPPGGHHHHHH; not fully specified) [JB872]		79%	High	high		
WGDapaGDapaVKIKK(P)9GG(H)6 (WG[Dap](Palmitoyl)G[Dap](Palmitoyl)VKIKKPPPPPPPPPGGHHHHHH) [JB580]		92%	Low	high		
WGDapaVKIKK(P)9GGKb [JB728]		93%	High	high		
WGDapa(P)9GG(H)6 (WG[Dap](Palmitoyl)PPPPPPPPPGGHHHHHH) [JB578]		46%	Low	moderate		
WGDapaVKIKK(P)4GG(H)6 (WG[Dap](Palmitoyl)VKIKKPPPPGGHHHHHH) [JB582]			None	none		
WGCcVKIKK(P)9GG(H)6 [JB589]		50%	Low	moderate		
WGDapVRL(P)3VRL(P)3VRL(P)3GG(H)6 (WG[Dap]VRLPPPVRLPPPVRLPPPGGHHHHHH) [JB868]		18%	Moderate	low		
KhGDapaVKIKK(P)9GG(H)6 ([Kh]G[Dap](Palmitoyl)VKIKKPPPPPPPPPGGHHHHHH; reading uncertain; also: N-terminal modifications) [JB867]					>90%	
WGDapaVRL(P)3VRL(P)3VRL(P)3GG(H)6 (WG[Dap](Palmitoyl)VRLPPPVRLPPPVRLPPPGGHHHHHH) [JB869]		55%	High	moderate		
WdGDapdiVKIKK(P)9GG(H)6 [JB621]		90%	Low	high		
biKWGSAibAAALGG(R)10 (bi-KWGS[Aib]AAALGGRRRRRRRRRR; reading uncertain) [JB722, Dye labeled cell penetrating peptide, reference compound]		1%	Low	low		
AcG(Pal)DapVKIKK P9GG H6 (Ac-G[Dap](Palmitoyl)VKIKKPPPPPPPPPGGHHHHHH) [Palm-1b]	largely well dispersed throughout the cytoplasm					
WGDapdiVKIKK(P)9GG(H)6 (WG[Dapdi]VKIKKPPPPPPPPPGGHHHHHH; reading uncertain) [JB641]		88%	Moderate	high		
WGDapaVKIKK(P)15GG(H)6 (WG[Dap](Palmitoyl)VKIKKPPPPPPPPPPPPPPPGGHHHHHH) [JB864]		85%	High	high		
WGDapVKIKK(P)9GG(H)6 (WG[Dap]VKIKKPPPPPPPPPGGHHHHHH) [JB579]		29%	Low	low		
WGDapaVRRRIRR(P)9GG(H)6 (WG[Dap](Palmitoyl)VRRRIRRPPPPPPPPPGGHHHHHH) [JB583]		41%	Low	moderate		
WGDapaVKIKK(Aib)9GG(H)6 (WG[Dap](Palmitoyl)VKIKK[Aib][Aib][Aib][Aib][Aib][Aib][Aib][Aib][Aib]GGHHHHHH) [JB747]		58%	High	moderate		
(H)6GG(P)9VKIKKDapaGW (HHHHHHGGPPPPPPPPPVKIKK[Dap](Palmitoyl)GW) [JB860]		60%	Moderate	moderate		
WGDapfVKIKK(P)9GG(H)6 [SI09160]		96%	Moderate	high		
WGDapaRRRIRR(P)9GGK [JB588]		85%	High	high		
VKIKKWGDapa(P)9GG(H)6 (VKIKKWG[Dap](Palmitoyl)PPPPPPPPPGGHHHHHH) [JB862]		9%	Low	low		
WGDapVRRRIRR(P)9GG(H)6 (WG[Dap]VRRRIRRPPPPPPPPPGGHHHHHH) [JB585]		25%	Low	low		
(H)6GG(P)9WGDapaVKIKK (HHHHHHGGPPPPPPPPPWG[Dap](Palmitoyl)VKIKK) [JB859]		17%	Moderate	low		
KETWWETWWTEWSQPKKKRKVSGAibAAAGG(H)6 (KETWWETWWTEWSQPKKKRKVSG[Aib]AAAGGHHHHHH) [JB719, Chariot peptide, reference compound]		43%	Moderate	moderate		
WGDabaVKIKK(P)9GG(H)6 (WG[Dab](Palmitoyl)VKIKKPPPPPPPPPGGHHHHHH) [JB858]						Membrane
WGDapeVKIKK(P)9GG(H)6 [JB729]		84%	High	high		
WGDapaaVKIKK(P)9GG(H)6 (WG[Dapaa]VKIKKPPPPPPPPPGGHHHHHH; reading uncertain) [JB866]		11%	Moderate	low		
WGDapaVKIKK(P)12GG(H)6 (WG[Dap](Palmitoyl)VKIKKPPPPPPPPPPPPGGHHHHHH) [JB865]		68%	High	moderate		
AcG(Pal)DapVKIKKGLAAAAGG H6 (Ac-G[Dap](Palmitoyl)VKIKKGLAAAAGGHHHHHH) [Palm-2b]	nearly entirely sequestered within endosomes					
